Data taken from patent US20130331345A1, “PUERARIN HYDRATES, PREPARATION METHODS AND USES THEREOF” (priority 2010, published 2013).

Key:
[1] = Hygroscopicity test according to the Pharmacopoeia of the People's Republic of China; type: physicochemical; conditions: 48 h, 25° C., relative humidity 75%; monohydrate
Protocol: (§1) The sample of the puerarin hydrate above (prepared by method of Example 1) and anhydrous puerarin (anhydrous puerarin was prepared by: drying the hydrate as prepared in Example 1 at 90-105° C. in the presence of phosphorus pentoxide under vacuum for 24-72 hours or more to obtain an anhydrous puerarin, and the water content of anhydrous puerarin was usually lower than 1.0% as measured by Karl Fisher method) were sealed in penicillin bottles to perform accelerated stability test (chromatography conditions: chromatography column: C18 (150 mm×4.6 mm, 5 μm); mobile phase: 0.1% citric acid solution-methanol (75:25); flow rate: 1 ml/min; temperature: room temperature; detection wavelength: 250 nm). […] Hygroscopicity test was performed according to the Pharmacopoeia of the People's Republic of China: about 5 g of anhydrous puerarin and the crystalline hydrate of the present invention were taken, placed in dry watch glasses with constant weight, weighed precisely. Samples were taken separately at 0 h and 48 h of the test at 25° C. and relative humidity of 75%, and hygroscopicity weight gain percentages were calculated.

[2] = system: chronic ocular hypertension; test: Effects on chronic ocular hypertension of rabbits (dexamethasone model); type: in vivo; conditions: within 24 hours, puerarin hydrate 1% (W/V), betaxolol 0.5% (W/V), monohydrate
Protocol: Chronic Ocular Hypertension Models: 32 rabbits, half male and half female, were subjected to sub-conjunctive injection with 0.5 mg of dexamethasone under corneal limbus, once every other day, for consecutive 3 weeks, to obtain chronic ocular hypertension models, then randomly divided into physiological saline group, betaxolol group [0.5% (W/V)], puerarin hydrate group [1% (W/V)]. The maximum decrease of intraocular pressure was measured within 24 hours.

Long-term stability test = type: physicochemical
[3] = Accelerated stability test (40° C., RH75%), sealed in penicillin bottles; type: physicochemical; conditions: accelerated, 40° C.
Protocol: as §1

[4] = system: arrhythmia induced by aconitine; test: Effects on arrhythmia caused by aconitine in rats; type: in vivo, SD rats; conditions: 200 mg · kg^−1 intravenous, n = 10, p < 0.05 vs physiological saline, monohydrate
Protocol: 20 SD rats, male and female, body weight 185±19 g, randomly divided into 2 groups, separately administrated via intravenous injection with physiological saline, puerarin monohydrate (prepared by method of Example 1) (which was added with cosolvent to form an injectable solution) 200 mg·kg^−1. The rats were anesthetized with 3% pentobarbital sodium 40 mg·kg^−1, and fixed in supine position on operating table. The rats were subjected to injection via sublingual vein, after 6 min, subjected to intravenous injection of 0.0025% aconitine at a constant rate, 2 μg·min^−1 (0.08 ml·min^−1), the time of ventricular premature beat (VP), ventricular tachycardia (VT), ventricular fibrillation (VF) and cardiac arrest (CA) were recorded, and corresponding dosages were calculated.

[5] = system: cerebral ischemia-reperfusion; test: Effects on cerebral ischemia-reperfusion in rats (NO, NOS, MDA, SOD in brain tissue); type: in vivo, Wistar male rats; conditions: rats after ischemia-reperfusion, 400 mg/kg intragastric twice per day, monohydrate
Protocol: 36 Wistar male rats, body weight 250-300 g, were randomly divided into 3 groups: sham operation group, ischemia-reperfusion group, and the present invention drug group, 12 rats per group. The rats of the present invention drug group were intragastrically administered with physiological saline suspension of puerarin monohydrate (prepared by method of Example 1) in a dose of 400 mg/kg, volume of 2 ml, twice per day, for consecutive 7 days, and cerebral ischemia operation was performed 60 min after the last administration; the rats of sham operation group and the ischemia-reperfusion group were administered separately with isometric physiological saline 2 ml.
The rats were anesthetized with 10% chloral hydrate (3.5 ml/kg) by intraperitoneal injection, fixed at supine position, and molded by a modified Zea Longa suture method referring to document (Journal of Shanghai Jiaotong University (medical Science), 2007, 27(10): 1218-1222); suture was inserted only 10 mm in sham operation group, and the other steps were the same as the model groups. […] After successful modeling, the rats of the present invention drug group were administered twice per day in the same dose as above, while those of the sham operation group and the ischemia-reperfusion group were administered isometric physiological saline 2 ml. Sutures were drawn out 2 hours after modeling, the rats were executed 24 hours after reperfusion, and their brain weights were measured rapidly. 10% brain tissue homogenates were prepared at low temperature with physiological saline, centrifuged under 3000 r/min for 10 min at low temperature, the deposit was discarded, and the supernatant was taken and measured with commercial kits of SOD, MDA, NO, NOS according to their specifications to determine contents or activities of SOD, MDA, NO, NOS.

[6] = listed as The present invention drug
[7] = listed as the present invention drug

O=c1c(-c2ccc(O)cc2)coc2c([C@@H]3O[C@H](CO)[C@@H](O)[C@H](O)[C@H]3O)c(O)ccc12 [Sample 1, puerarin monohydrate]
In comparison with 0 h, weight gain, % [1]: 0.12%
Maximum decrease of intraocular pressure (mmHg) [2]: 2.6 mmHg
Marked content (%) (Long-term stability test; sampling time 0 month): 99.5%
Property (Long-term stability test; sampling time 0 month): off-white powder
Related substance (%) (Long-term stability test; sampling time 0 month): <2%
Marked content (%) (Long-term stability test; sampling time 3 month): 99.6%
Property (Long-term stability test; sampling time 3 month): off-white powder
Related substance (%) (Long-term stability test; sampling time 3 month): <2%
Marked content (%) (Long-term stability test; sampling time 6 month): 99.5%
Property (Long-term stability test; sampling time 6 month): off-white powder
Related substance (%) (Long-term stability test; sampling time 6 month): <2%
Marked content (%) (Long-term stability test; sampling time 9 month): 99.4%
Property (Long-term stability test; sampling time 9 month): off-white powder
Related substance (%) (Long-term stability test; sampling time 9 month): <2%
Marked content (%) (Long-term stability test; sampling time 12 month): 99.4%
Property (Long-term stability test; sampling time 12 month): off-white powder
Related substance (%) (Long-term stability test; sampling time 12 month): <2%
Marked content (%) ([3]; sampling time 0 month): 99.5%
Property ([3]; sampling time 0 month): off-white powder
Related substance (%) ([3]; sampling time 0 month): <2%
Marked content (%) ([3]; sampling time 1 month): 99.3%
Property ([3]; sampling time 1 month): off-white powder
Related substance (%) ([3]; sampling time 1 month): <2%
Marked content (%) ([3]; sampling time 2 month): 99.6%
Property ([3]; sampling time 2 month): off-white powder
Related substance (%) ([3]; sampling time 2 month): <2%
Marked content (%) ([3]; sampling time 3 month): 99.4%
Property ([3]; sampling time 3 month): off-white powder
Related substance (%) ([3]; sampling time 3 month): <2%
Marked content (%) ([3]; sampling time 6 month): 99.3%
Property ([3]; sampling time 6 month): off-white powder
Related substance (%) ([3]; sampling time 6 month): <2%
Dose of aconitine causing cardiac arrest (CA) ([4]; listed as PW): 0.0951 ± 0.0086 mg/kg
Dose of aconitine causing ventricular fibrillation (VF) ([4]; listed as PW): 0.0635 ± 0.0077 mg/kg
Dose of aconitine causing ventricular premature beat (VP) ([4]; listed as PW): 0.0331 ± 0.0073 mg/kg
Dose of aconitine causing ventricular tachycardia (VT) ([4]; listed as PW): 0.0449 ± 0.0072 mg/kg
Dose of aconitine causing cardiac arrest (CA) [4]: significantly increased
Dose of aconitine causing ventricular fibrillation (VF) [4]: significantly increased
Dose of aconitine causing ventricular premature beat (VP) [4]: significantly increased
Dose of aconitine causing ventricular tachycardia (VT) [4]: significantly increased
MDA in brain tissue [5, 6]: 2.54 ± 0.57 nmol/mL
NO in brain tissue [5, 6]: 26 ± 6.13 µmol/L
NOS in brain tissue [5, 6]: 23 ± 5.22 U/ml
SOD in brain tissue [5, 6]: 243 ± 19.66 U/ml
MDA in brain tissue [5, 7]: significantly decreased
NO in brain tissue [5, 7]: significantly decreased
NOS in brain tissue [5, 7]: decreased
SOD in brain tissue [5, 7]: increased significantly
